Assay results published in patent publication US20040198738A1, “Preventives or remedies for diseaes caused by enos expression” (priority 2002, published 2004).

What was measured:
[1] = from treatment for Parkinson's disease in Japanese Patent Laid-Open No. 59-25323; cited from earlier work
[2] = system: ApoE-KO/eNOS-Tg mice; test: Sclerotic lesion area of aorta (Sudan III staining, image analysis) in mice fed high cholesterol diet; type: in vivo, mouse; details: BH4 10 mg/kg/day added to high cholesterol diet, FIG. 3
Description: 37 mice (ApoE-KO/eNOS-Tg) produced in Example 10 were ablactated at the age of 4 weeks, and then fed on high cholesterol diet (1.25% cholesterol, 7.5% cacao butter, 7.5% casein, and 0.5% sodium cholate) for 12 weeks.
Thereafter, the 16-week-old mice were anesthetized with pentobarbital, and the aorta was perfused with a physiological saline solution containing 10 U/ml heparin. Thereafter, the aorta corresponding to the portion from the center of the left ventricle to the bifurcation portion of the iliac artery was excised and fixed with 4% paraformaldehyde overnight. Surrounding tissues were eliminated from the distal portion (from the aortic arch to the bifurcation portion of the iliac artery) of the excised aorta. The aorta was longitudinally opened and fixed on a dish coated with silicone, and then stained with Sudan III. The obtained light microscope image was analyzed using NIH 1.61 Imaging Software. The lesion formation area was expressed by lesion area/the total area of aorta. In the figure, * denotes p<0.0001 with respect to ApoE-KO male, and the cross denotes p<0.001 with respect to ApoE-KO female.
6 to 8 mice (ApoE-KO/eNOS-Tg) produced in Example 10 were used per group. BH4 non-administration groups were fed on the high cholesterol diet (refer to Example 10), and BH4 administration groups were fed on the high cholesterol diet to which BH4 was added at 10 mg/kg/day. […]

[3] = system: NO from aortic endothelium of ApoE-KO/eNOS-Tg mice; test: Production of NO in excised aorta (DAF-2 DA fluorescence, acetylcholine stimulated); type: in vivo, mouse; details: 12-week-old mice, high cholesterol diet for 8 weeks, BH4 administered vs not administered; FIG. 5; p<0.01
Description: The aorta containing the portion from the aortic arch to the bifurcation portion of the iliac artery was excised from each of 12-week-old mice (ApoE-KO/eNOS-Tg) fed on a high cholesterol diet for 8 weeks. Immediately thereafter, surrounding portions were eliminated in PBS with pH 7.4. The sample was mounted on a black dish filled with a phosphate buffer (pH 7.4) containing 1.5 mmol/L calcium chloride, and it was then placed in a light-shielding box to avoid interference of external light.
Diaminofluorescein-2 diacetate (DAF-2 DA) was added thereto to the final concentration of 10 μmol/L. Then, the sample was left at ambient temperature for 5 minutes, and thereafter, it was excited with 485 nm blue light. The fluorescence generated as a result of the reaction between DAF-2 DA and NO was detected, using a luminograph equipped with a band filter with a center of 532 nm, and measurement was carried out for 1 second at an intensity of wave length of 515 nm. To examine the production of NO from the aortic endothelium, the sample was left in 1 μmol/L acetylcholine solution for 5 minutes, and then the fluorescent image was measured. After completion of each experiment, in order to determine whether the measured sample was a plaque area or non-plaque area, the sample was stained with Sudan III and observed. […]

[4] = system: superoxide in plaque area of aorta of ApoE-KO/eNOS-Tg mice; test: Production of superoxide in excised aorta (MCLA chemiluminescence); type: in vivo, mouse; details: BH4 added high cholesterol diet for 8 weeks, 12 weeks old mice; vs non-administration; FIG. 4; p<0.01
Method: Groups were prepared, each of which consisted of 6 to 8 mice (12 weeks old, ApoE-KO/eNOS-Tg) fed on BH4 added or BH4 non-added high cholesterol diet for 8 weeks in the same manner as in Example 12. The aorta was excised from these mice, peripheral tissues were eliminated, and the remaining portion was mounted on a black silicone dish filled with PBS with pH 7.4. The sample was placed in a light-shielding box to avoid interference of external light, and thereafter, MCLA was added to the chamber to the final concentration of […]. Thereafter, light emission generated as a result of the reaction between MCLA (2-methyl-6-(4-methoxyphenyl)-3,7-dihydroimidazol[1,2-a]pyrazin-3-one-hydrochloride) and superoxide anion was measured for 5 minutes. This measurement was repeated 3 times.
The light emission data was served in a computer, and the obtained nonlinear gray scale images were converted into pseudocolor images. The intensity of chemiluminescence due to superoxide was analyzed using WinLight 32 software. The plaque area was defined as an area that was stained with Sudan III. Approximately 10 plaque areas and 10 non-plaque areas ([…]) were randomly selected from each mouse, followed by measurement. The background level was subtracted from each chemiluminescent signal intensity. […] The results are shown as relative values. […]

[5] = Acute toxicity of BH4 dihydrochloride in rat, oral administration; type: in vivo
Description: The active ingredient used in the present invention is most preferably (6R)-L-erythro-5,6,7,8-tetrahydrobiopterin (BH4) or a salt thereof. However, analogues thereof such as (6R, S)-5,6,7,8-tetrahydrobiopterin, 1′,2′-diacetyl-5,6,7,8-tetrahydrobiopterin, sepiapterin, 6-methyl-5,6,7,8-tetrahydropterin, 6-hydroxymethyl-5,6,7,8-tetrahydropterin, 6-phenyl-5,6,7,8-tetrahydropterin, or a salt thereof, may also be used. However, needless to say, BH4 that is a natural substance existing in an organism is preferable. […] In addition, as is clear from the description of a treatment for Parkinson's disease in Japanese Patent Laid-Open No. 59-25323, the toxicity of (6R, S)-5,6,7,8-tetrahydrobiopterin, that is, non-optically pure substance, is weak. Accordingly, this compound can also be used for the treatment in the present invention. Compounds represented by the formula (I) other than the above described compounds have almost no acute toxicity.

SMILES: C[C@H](O)[C@H](O)C1CNc2nc(N)[nH]c(=O)c2N1 (stereo partly drawn) [(6R, S)-5,6,7,8-tetrahydrobiopterin]
- toxicity [1]: weak

SMILES: CC(O)C(O)C1CNc2nc(N)[nH]c(=O)c2N1 [BH4, (6R)-L-erythro-5,6,7,8-tetrahydrobiopterin]
- arteriosclerosis [2]: suppressed
- lesion area (lesion area/total area of aorta) ([2]; vs non-administration group, p<0.05 male, p<0.01 female): reduced
- production of NO in non-plaque area [3]: significantly increased
- production of superoxide in plaque area [4]: significantly reduced

SMILES: C[C@H](O)[C@H](O)[C@H]1CNc2[nH]c(N)nc(=O)c2N1.Cl.Cl [BH4 dihydrochloride]
- acute toxicity [5]: ≥ 2 g/kg (body weight)
- toxicity (in words) [5]: almost no toxicity is found
